In patent publication US8765464B2, “Kit for culturing cells comprising tube with flat wall, extracellular matrix and culture medium” (Kurashiki Boseki Kabushiki Kaisha, priority 2001, dated 2014):
Counter-ions that a name gives are not always drawn.

What was measured:
[1] = tested on: C-1, A-549, MKN-28, HFL-1 and WI-38 cell lines; experiment: Confirmation test of cell toxicity according to vancomycin amount: cell proliferativity in preliminary culture step, cell lines; format: cell-based, human; conditions: various cells, after 48 hours from the beginning of the culture
Experimental: (§1) Specifically, it is confirmed whether the vancomycin in the culture medium of the preliminary culture step has a unfavorable influence upon the cell proliferativity in the preliminary culture step, the cell proliferativity in the proliferative culture step, and the anticancer agent sensitivity test results or not, and then the following test was carried out. Herein, the unfavorable influence means such an influence as causes to decrease the cell proliferativity and success rate of the anticancer agent sensitivity test.
(§2) As to the test material and the number of cells as seeded (test material/number of cells as seeded), the following were used: • C-1 (human colon cancer cell line)/1×10^5 cells/well • A-549 (human lung cancer cell line)/1×10^5 cells/well • MKN-28 human stomach cancer cell line)/1×10^5 cells/well • HFL-1 and WI-38 (human fibroblast cells line)/1×10^5 cells/well • Lung-k human primary lung cancer cells)/5×10^5 cells/well (in the preliminary culture step) or 2×10^5 cells/well (in the proliferative culture step) […]
(§3) […] After the cells were counted with a blood-cell counter board, the cell number per 1 ml of the culture medium was calculated, and the cell proliferativity in the preliminary culture step was observed.

[2] = tested on: Lung-k human primary lung cancer cells; experiment: Confirmation test of cell toxicity according to vancomycin amount: preliminary culture step, primary cells; format: cell-based; conditions: human primary culturing cells, after 48 hours from the beginning of the culture
Experimental: as §1, §2, §3

[3] = tested on: C-1, A-549, MKN-28, HFL-1, WI-38 cell lines and Lung-k primary lung cancer cells; experiment: Influence of vancomycin amount upon anticancer agent sensitivity test results; format: cell-based, human; conditions: vancomycin not more than 3.0 mg/ml added in the preliminary culture step; Taxol, Taxotere, Gemcitabine, Navelbine
Description: (§4) As to the test material and the number of cells as seeded (test material/number of cells as seeded), the following were used: • C-1 (human colon cancer cell line)/1×10^5 cells/well • A-549 (human lung cancer cell line)/1×10^5 cells/well • MKN-28 human stomach cancer cell line)/1×10^5 cells/well • HFL-1 and WI-38 (human fibroblast cells line)/1×10^5 cells/well • Lung-k human primary lung cancer cells)/5×10^5 cells/well (in the preliminary culture step) or 2×10^5 cells/well (in the proliferative culture step)
(§5) The culture medium in the preliminary culture step was a culture medium as used in Example 1, and only the concentrations of the vancomycin produced by Wako Pure Chemicals Co., Ltd.) therein were settled in the following conditions: 0.1 mg/ml, 0.5 mg/ml, 1.0 mg/ml, 1.5 mg/ml, 2.0 mg/ml, 2.5 mg/ml, 3.0 mg/ml, 4.0 mg/ml, and 5.0 mg/ml, and tests were carried out in each condition. […]
(§6) (5) The resultant test plate is quantitatively analyzed with an image analyzer, and then the unfavorable influence upon the cell proliferativity and the anticancer agent sensitivity test results (antitumor effect T/C (%): relative proliferation ratio T/C (%) between a group non-treated with anticancer agents (C) and a group treated with anticancer agents (T), in the case where the ratio is not more than 50%, it is defined as having a sensitivity.) are observed. […]

[4] = tested on: C-1, A-549, MKN-28, HFL-1, WI-38 cell lines and Lung-k primary lung cancer cells; experiment: Confirmation test of cell toxicity according to vancomycin amount: cell proliferativity in proliferative culture step; format: cell-based, human; conditions: vancomycin not more than 3.0 mg/ml added in the preliminary culture step; after 7 days culture
Description: as §4, §5, §6

SMILES: CN[C@H](CC(C)C)C(=O)N[C@H]1C(=O)N[C@@H](CC(N)=O)C(=O)N[C@H]2C(=O)N[C@H]3C(=O)N[C@H](C(=O)N[C@H](C(=O)O)c4cc(O)cc(O)c4-c4cc3ccc4O)[C@H](O)c3ccc(c(Cl)c3)Oc3cc2cc(c3O[C@@H]2O[C@H](CO)[C@@H](O)[C@H](O)[C@H]2O[C@H]2C[C@](C)(N)[C@H](O)[C@H](C)O2)Oc2ccc(cc2Cl)[C@H]1O [vancomycin, vancomycin hydrochloride]
- vancomycin concentration at which the cell proliferation was as good as without vancomycin [1]: not more than 2.0 mg/ml
- vancomycin concentration at which the cell number was maintained and cell toxicity (cells-killing action) was not observed [2]: not more than 3.0 mg/ml
- unfavorable influence upon the anticancer agent sensitivity test results (antitumor effect T/C (%)) [3]: no unfavorable influence
- unfavorable influence upon the cell proliferativity in the proliferative culture step [4]: not found
